Data as given in paper PMC12029309, “Synthesis and Antifungal Activity of 1,2,4-Oxadiazole Derivatives” (Molecules, 2025).
Converted amounts (≈) assume the structure as drawn. Like-named read-outs stand apart in the source and are kept apart here.

Experiments:
F. graminearum = test: microbe, parasite or virus in culture; type: cell-based; settings: Fusarium graminearum; for EC50: read-out: EC50 (μg/mL) F. graminearum; for inhibition at 50 µg/mL: read-out: The Inhibition Rate (%) F. graminearum
B. cinerea = test: Mycelial growth inhibition test in vitro (B. cinerea); type: cell-based; settings: Botrytis cinerea; 50 μg/mL, mean ± SD of three replicates; read-out: The Inhibition Rate (%) B. cinerea
Description: (§1) The antifungal activity of the target compound was tested by the mycelial growth inhibition rate method. The compounds were detected at a concentration of 50 μg/mL, and carbendazim was used as the positive control. The antifungal activity was carried out according to literature reports. After drilling the mycelium (3 mm), it was inoculated into the PDA medium containing compounds, and the Petri dish was put into the incubator at 25 °C for 12-48 h; then, the colony diameter was measured with 50 index vernier caliper by the cross method, and the data were recorded. […] • A: The average diameter of the blank medium colony. • B: Diameter of mushroom cake (3 mm). • C: The average diameter of the colonies in the medium containing compound.

R. solani = test: microbe, parasite or virus in culture; type: cell-based; settings: Rhizoctonia solani; for EC50: read-out: EC50 (μg/mL) R. solani; for inhibition at 50 µg/mL: read-out: The Inhibition Rate (%) R. solani
C. capsica [1] = test: Mycelial growth inhibition test in vitro (C. capsica); type: cell-based; settings: Colletotrichum; for EC50: read-out: EC50 (μg/mL) C. capsica; for inhibition at 50 µg/mL: 50 μg/mL, mean ± SD of three replicates, read-out: The Inhibition Rate (%) C. capsica
Description: as §1, with “compound. […] The PDA medium containing different concentrations of the compound was prepared by the two-fold dilution method, the final concentration of the compound in the medium was adjusted to 0-100.00 μg/mL, and three parallel samples were set for each concentration. […] The toxicity regression equation of the tested compound was obtained, taking the logarithm of compound concentration (lgc) as the independent variable (x) and the probability value of inhibition rate as the dependent variable (y), and the EC50 value of each tested compound was calculated.” for “compound.”

C. capsica [2] = test: Antifungal activity in vivo: protective effect on detached pepper infected by C. capsica; parameters: species or system Colletotrichum capsica
Description: The protective effects of compounds 4q and 4f and carbendazim on pepper infected by […] studied. […] The peppers were washed with water and dried, and the surface was wiped with 75% ethanol for sterilization. The infected area was pricked with a diameter of 4 mm on the surface of the green pepper with a sterile inoculation needle. After spraying the antifungus compound solution on the surface and resting for 12 h, the activated cake (4 mm in diameter) was inoculated into the infected area. After culturing at 25 °C for 1 to 7 days, the plaque diameter was measured by the cross method, and the efficacy was calculated according to Formula (2).(2) Control efficacy%=A-B/A-C×100% • A: The average diameter of the blank medium colony. • B: The average diameter of the colonies in the medium containing compound. • C: Diameter of mushroom cake (3 mm/4 mm).

E. turcicum = test: Mycelial growth inhibition test in vitro (E. turcicum); type: cell-based; settings: Exserohilum turcicum; for EC50: read-out: EC50 (μg/mL) E. turcicum; for inhibition at 50 µg/mL: 50 μg/mL, mean ± SD of three replicates, read-out: The Inhibition Rate (%) E. turcicum
MCF-7 cell line = test: MTT cytotoxicity evaluation on MCF-7 cells; type: cell-based; settings: 100 μM, 24 h
Description: (§2) Cells were incubated at 37 °C in an incubator with 5% CO2. Cell viability was determined using the MTT assay. Briefly, MCF-7 cell lines were seeded at 5000–8000 cells/well in 96-well plates. […] Following a continuous 24 h of incubation, the culture medium was replaced by 90 μL fresh culture medium, and 10 μL MTT solution was added.

[3] = MTT cytotoxicity evaluation on MCF-7 cells; type: cell-based; settings: human, range 0~100 μM
Description: as §2

SMILES	EC50 (F. graminearum) [µg/mL]	inhibition at 50 µg/mL (F. graminearum) [%]	inhibition at 50 µg/mL (B. cinerea) [%]	EC50 (R. solani) [µg/mL]	inhibition at 50 µg/mL (R. solani) [%]	EC50 (C. capsica [1]) [µg/mL]	inhibition at 50 µg/mL (C. capsica [1]) [%]	Control efficacy (%) (C. capsica [2]; 500 μg/mL, 5 days)	Control efficacy (%) (C. capsica [2]; 1000 μg/mL, 3 day)	EC50 (E. turcicum) [µg/mL]	inhibition at 50 µg/mL (E. turcicum) [%]	cell survival rate of MCF-7 cells (MCF-7 cell line)	IC50 at 24 h [3] [µM]	Control efficacy (%) (C. capsica [2]; 1000 μg/mL, 5 days)	EC50 (C. capsica [1]; mycelial growth, 0–100.00 μg/mL two-fold dilution) [µg/mL]
Oc1ccc(-c2nc(-c3ccccc3)no2)cc1O [Compound 4f, 4-(3-Phenyl-1,2,4-oxadiazol-5-yl) benzene-1,2-diol]	30 (≈ 118 µM)	100	38.9 ± 5.35	12.7 (≈ 49.9 µM)	80.9 ± 2.4	8.81 (≈ 34.7 µM)	86.8 ± 3.11	100	100	29.1 (≈ 115 µM)	85.7 ± 1.97	–	–	–	–
COc1ccc(-c2noc(-c3ccc(C(C)(C)C)cc3)n2)cc1 [Compound 4l, 5-(4-(tert-Butyl)phenyl)-3-(4-methoxyphenyl)-1,2,4-oxadiazole]	–	27.6 ± 1.78	< 10	–	< 10	–	< 10	–	–	–	24.2 ± 3.77	significant cell proliferation	–	–	–
COc1ccc(-c2noc(-c3cc(O)cc(O)c3)n2)cc1OC [Compound 4p, 5-(3-(3,4-Dimethoxyphenyl)-1,2,4-oxadiazol-5-yl)benzene-1,3-diol]	–	< 10	< 10	–	< 10	–	0	–	–	–	11.2 ± 1.91	significant cell proliferation	–	–	–
COc1ccc(-c2noc(-c3ccc(O)c(O)c3)n2)cc1OC [Compound 4q, 4-(3-(3,4-Dimethoxyphenyl)-1,2,4-oxadiazol-5-yl)benzene-1,2-diol]	149 (≈ 475 µM)	43.5 ± 3.7	32.8 ± 12.2	38.9 (≈ 124 µM)	47.8 ± 8.13	41.7 (≈ 133 µM)	55.5 ± 1.34	50.12	–	229 (≈ 729 µM)	43.5 ± 0.99	–	≥ 100	76.83	–
COc1ccc(-c2noc(/C=C/c3ccccc3)n2)cc1OC [Compound 5e, (E)-3-(3,4-Dimethoxyphenyl)-5-styryl-1,2,4-oxadiazole]	–	28.7 ± 5.14	30.6 ± 1.43	–	23.9 ± 0.59	–	< 10	–	–	–	29.4 ± 2.05	significant cell proliferation	–	–	–
COC(=O)Nc1nc2ccccc2[nH]1 [carbendazim, reference compound]	19.6 (≈ 102 µM)	–	–	1.1 (≈ 5.75 µM)	–	–	–	100	–	110 (≈ 573 µM)	–	–	–	100	0.22 (≈ 1.15 µM)
